What was measured:
[1] = system: human esophagus cancer KYSE 410 xenograft; experiment: Growth of KYSE 410 xenograft subcutaneously transplanted in nude mouse; type: in vivo; details: for Relative tumor proliferation rate T/C: 50 mg/kg p.o. once every day
Method: Well-developed tumors in nude mice were cut into 1.5 mm3 fragments and transplanted s.c. into the right flank of nude mice under sterile conditions. The diameters of subcutaneously transplanted tumours in nude mice were measured with a vernier calipe. When the tumour reached a volume 170 mm3, the mice were randomly assigned into two treatment groups: CYH33 50 mg/kg group or BYL-719 50 mg/kg group. Control groups were given the same amount of normal saline, and treatment groups received tested compounds (p.o). Compounds were administered orally once every day for 3 weeks. Evaluation index of antitumor activity was relative tumor proliferation rate T/C (%), the calculation formula of which was as follows: T/C (%)=(TRTV/CRTV)×100%, TRTV:RTV of treatment group; CRTV:RTV of negative control group.

[2] = system: colorectal cancer cells C-LOVO; experiment: Proliferation of human cancer cell panel; type: cell-based; details: read-out: inhibitory activity on proliferation
From the text: (§1) I-30 and I-33 were selected to test their activity on the proliferation of human cancer cells originated from different tissue types.

[3] = system: colon cancer cells C-HCT-116; experiment: Proliferation of human cancer cell panel; type: cell-based; details: read-out: inhibitory activity on proliferation
From the text: as §1

[4] = system: B-BT474; experiment: Proliferation of human cancer cell panel; type: cell-based; details: read-out: inhibitory activity on proliferation
From the text: as §1

[5] = system: LG-NCI-H460; experiment: Proliferation of human cancer cell panel; type: cell-based; details: read-out: inhibitory activity on proliferation
From the text: as §1

[6] = system: rhabdomyosarcoma cells S-RH30; experiment: Proliferation of human cancer cell panel; type: cell-based; details: read-out: inhibitory activity on proliferation
From the text: as §1

[7] = system: O-SKOV-3; experiment: Proliferation of human cancer cell panel; type: cell-based; details: read-out: inhibitory activity on proliferation
From the text: as §1

[8] = system: gastric cancer cells G-MKN-45; experiment: Proliferation of human cancer cell panel; type: cell-based; details: read-out: inhibitory activity on proliferation
From the text: as §1

[9] = system: hepatoma cells L-BEL-7402; experiment: Proliferation of human cancer cell panel; type: cell-based; details: read-out: inhibitory activity on proliferation
From the text: as §1

[10] = system: P-PC-3; experiment: Proliferation of human cancer cell panel; type: cell-based; details: read-out: inhibitory activity on proliferation
From the text: as §1

[11] = system: LG-NCI-H23; experiment: Proliferation of human cancer cell panel; type: cell-based; details: read-out: inhibitory activity on proliferation
From the text: as §1

[12] = system: endometrial cancer cells E-RL95-2; experiment: Proliferation of human cancer cell panel; type: cell-based; details: read-out: inhibitory activity on proliferation
From the text: as §1

[13] = system: PI3K signaling in human glioma U87MG cells; experiment: PI3K signaling after IGF-1 stimulation (Western blot), U87MG; type: cell-based; details: compound 1 h, IGF-1 10 minutes
Method: Rh30 and U87MG cells were seeded in 12-well plates at 2×10^5 cells/well. On the next day, cells were incubated in fresh serum-free culture media subjected to starvation for 24 hours. Cells were then treated with different concentrations of compound I-33 for 1 h. After stimulated with IGF-1 for 10 minutes, the lysed cells were collected, and 4×SDS loading buffer [200 mM Tris.Cl (pH 6.8), 400 mM DTT, 8% SDS (sodium dodecyl sulfate), 0.4% bromophenol blue, 40% glycerol] was added. The cell lysates were boiled for 10 minutes. Aliquot was loaded on polyacrylamide gel and electrophoresis was performed in Tris-glycine electrophoresis buffer (25 mM Tris, 250 mM glycine, 0.1% SDS) at 80-100 V for 2-2.5 hours. The proteins were transformed from gel to nitrocellulose filter membrane by using semidry method. The filter membrane was blocked with blocking solution containing 5% skim milk powder (5% skim milk powder, 20 mM Tris-HCl (pH 7.2-7.4), 150 mM NaCl, 0.1% (v/v) Tween20) in a shaker at room temperature for 2 hours. Then specific primary antibody was added and hybridized at 4° C. overnight. The membrane was washed by washing buffer [20 mM Tris-HCl (pH 7.2-7.4), 150 mM NaCl, 0.1% (v/v) Tween20] for three times at room temperature, 15 minutes each time. […]

IC50 [2]: 1330 nM
IC50 [3]: 10000 nM
IC50 [4]: 62 nM
IC50 [5]: 1520 nM
IC50 [6]: 486 nM
IC50 [7]: 277 nM
IC50 [8]: 3400 nM
IC50 [9]: 4900 nM
IC50 [10]: 1580 nM
IC50 [11]: 730 nM
IC50 [12]: 5300 nM
Compound: COC(=O)Nc1cc(C(F)(F)F)c(-c2nc(N3CCOCC3)c3cc(CN4CCN(S(C)(=O)=O)CC4)cn3n2)cn1 [Compound I-33, Methyl (5-(6-((4-(methylsulfonyl)piperazin-1-yl)methyl)-4-morpholinopyrrolo[2,1-f][1,2,4]triazin-2-yl)-4-(trifluoromethyl)pyridin-2-yl)carbamate]
growth of KYSE 410 xenograft (in words) ([1]; 50 mg/kg p.o. every day for 3 weeks): significantly slowed down
Relative tumor proliferation rate T/C ([1]; d0): 100.00%
Relative tumor proliferation rate T/C ([1]; d3): 65.56%
Relative tumor proliferation rate T/C ([1]; d7): 30.11%
Relative tumor proliferation rate T/C ([1]; d10): 25.23%
Relative tumor proliferation rate T/C ([1]; d14): 13.79%
Relative tumor proliferation rate T/C ([1]; d17): 10.51%
Relative tumor proliferation rate T/C ([1]; d21): 9.13%
transduction of PI3K signaling [13]: significantly inhibited

— US9724352B2, “Pyrrolo[2,1-F[1,2,4]triazine compounds, preparation methods and applications thereof” (Shanghai Institute of Materia Medica, Chinese Academy of …, priority 2012, dated 2017)
